In patent publication US20060004036A1, “Sigma-2 receptor agonists and their use in the treatment of HIV infection” (The United States of America, per Secy. DHHS, NIH, priority 2003, published 2006):

How the values were obtained:
HIV = HIV infectivity assay, luciferase activity in CEMX174 cells with SIV LTR-driven luciferase gene; type: cell-based; conditions: for inhibition of HIV infection (in words): lymphocytes incubated 24 hours with drug, washed, exposed to HIV for 24 hours, luciferase activity (FIG. 2)
Procedure: CEMX174 cells transfected with a luciferase gene driven by the Simian Immunodeficiency Virus (SIV) LTR are used in infectivity assays. Cells are then treated with sigma-2 receptor agonists at various concentrations followed by incubation in the presence or absence (control) of HIV. Luciferase activity quantifies HIV replication.
This inhibition of HIV infection occurs at doses within the range of concentrations of CB-184 and haldol that produce reductions in membrane sphingomyelin, as shown above in FIG. 1. In these experiments, lymphocytes transfected with a luciferease gene driven by the Simian Immunodeficiency virus (SIV)LTR were incubated for 24 hours in the presence of the indicated dose of sigma-2 receptor agonist. The drugs were then removed, cells were washed and exposed to HIV for 24 hours. Cells were then lysed and luciferase activity quantified. Luciferase activity indicates the level of infectivity of the HIV virions. All of the compounds evaluated with sigma-2 agonist activity inhibited HIV infection at concentrations that were non-toxic to lymphocytes.

H9 lymphocytes = assay: Membrane sphingomyelin levels in [3H]palmitic acid-labeled H9 lymphocytes; type: cell-based; conditions: H9 cells, 24 hours incubation (FIG. 1)
Procedure: Methods: Membrane sphingomyelin is metabolically labeled in H9 lymphocytes by incubating the cells with [^3H] palmitic acid in supplemented RPMI media for 48 h. Labeled media is removed and cells are incubated in the presence or absence of various concentrations of the sigma-2 receptor agonists CB-184 or haldol (haloperidol) for 24 hours. Total lipids are extracted and the dried organic layer is chromatographed on Silica G-60 plates. Sphingomyelin spots are scraped and quantified by liquid scintillation counting.

Structure (SMILES)	inhibition of HIV infection (in words) (HIV)	effect of the antagonist on the ability of CB-184 to inhibit HIV infection of lymphocytes (in words) (HIV; with CB-184 at various doses and different HIV viral titres (FIG. 3, 4, 5))	reduction of control levels of membrane sphingomyelin (H9 lymphocytes; 0.3 μM)	reduction of control levels of membrane sphingomyelin (H9 lymphocytes; 1 μM) [%]
CN(CCc1ccc(Cl)c(Cl)c1)[C@H]1CCCC[C@H]1N1CCCC1 (relative stereo) [BD737, 1S,2R-(+)-cis-N-[2-(3,4-dichlorophenyl)ethyl]-N-methyl-2-(1-pyrrolidinyl)-cyclohexylamine]	dose-dependent inhibition			
c1ccc(CCN2CCCCC2)cc1 [AC-927, N-phenethylpiperidine, reference compound]		reversed		
CN1CC[C@]2(c3cccc(O)c3)CC(=O)/C(=C/c3ccccc3)[C@H]1C2 [CB-64D]	dose-dependent inhibition			
CN1CC[C@]2(c3cccc(O)c3)CC(=O)/C(=C/c3ccc(Cl)c(Cl)c3)[C@H]1C2 [CB-184, (+)-1R,5R-E-8-(3,4-dichlorobenzylidene)-5-(3-hydroxyphenyl)-2-methylmorphan-7-one]	dose-dependent inhibition		about 39%	~45
O=C(CCCN1CCC(O)(c2ccc(Cl)cc2)CC1)c1ccc(F)cc1 [haldol, haloperidol, reference compound]	dose-dependent inhibition			
